# From patent publication US20160256511A1, “COMPOSITIONS AND METHODS FOR THE TREATMENT OR PROPHYLAXIS OF CIRCADIAN PROTEIN RELATED CONDITIONS” (IN INGREDIENTS, INC., priority 2013, published 2016)
# How the values were obtained:
# Format in all cases: cell-based, Porcine
# Conditions in all cases: 24 hr, all three concentrations (1 μM; 5 μM; 20 μM)
# SIRT1 = SIRT1 immunofluorescence in iPEC-1 cells treated with ursolic acid
# Description: (§1) iPEC-1 cells were grown as a monolayer in DMEM with 10% fetal bovine serum (FBS) and the necessary supplements at 37° C. in a humidified incubator with 5% CO2. iPEC1 cells were seeded on 35 mm dishes. Experiments were initiated 48 hr after plating. Cells were treated with saline or with ursolic acid at three separate dosages (1 μM; 5 μM; or 20 μM) in the medium for 24 hr at 37° C. The cells were then washed with ice-cold PBS and fixed with 4% paraformaldehyde for 10 min at room temperature followed by permeabilization with 0.3% Triton X-100 for 10 min. After being washed with PBS three times, cells were incubated for 1 hr in PBS containing 10% normal goat serum blocking solution. The cells were subjected to immunofluorescence staining with the target specific antibodies (SIRT1, CLOCK and Bmal1) overnight at 4° C. The cells were then washed with cold PBS three times for 3 min each, and incubated with Alexa-labeled secondary antibodies (Invitrogen) at room temperature for 1 h. The cells were examined by fluorescence microscopy (a Nikon TE2000-S microscope, Nikon, Tokyo, Japan).
# Bmal1 = Bmal1 immunofluorescence in iPEC-1 cells treated with ursolic acid
# Description: as §1
# CLOCK = CLOCK immunofluorescence in iPEC-1 cells treated with ursolic acid
# Description: as §1
structure (smiles),measurement,setting,value
C[C@H]1[C@H](C)CC[C@]2(C(=O)O)CC[C@]3(C)C(=CC[C@@H]4[C@@]5(C)CC[C@H](O)C(C)(C)[C@@H]5CC[C@]43C)[C@H]12 [ursolic acid],intensity of immunofluorescence of SIRT1 compared with controls,SIRT1,significantly induced the intensity of immunofluorescence
same,intensity of immunofluorescence of Bmal1 compared with controls,Bmal1,significantly induced the intensity of immunofluorescence
same,intensity of immunofluorescence of CLOCK compared with controls,CLOCK,significantly induced the intensity of immunofluorescence
